For one assay, the target named is histamine H1 (Homo sapiens, UniProt P35367). The assay is described as follows: histamine H1 antagonism.
Assay [1] addresses alpha-1 adrenergic receptor. Briefly: alpha-1 adrenergic receptor radioligand binding assay ([125I]-HEAT, rat cerebral cortex membranes). The settings on record: radioligand used at 40 pM. How it is done:
The inhibitory properties of agents of the invention on binding of the alpha-1 adrenergic receptor can be determined in the following assay:
Cerebral cortices from male Sprague-Dawley rats (175-200 g) are dissected and homogenised in 10 volumes of ice cold 0.32 M sucrose (containing 1 mM MgCl2 dihydrate and 1 mM K2HPO4) with a glass/Teflon homogeniser. The membranes are centrifuged at 1000×g for 15 miN, the pellet discarded and the centrifugation repeated. The supernatants are pooled and centrifuged at 18,000×g for 15 minutes. The pellet is osmotically shocked in 10 volumes of water and kept on ice for 30 minutes. The suspension is centrifuged at 39,000×g for 20 minutes, resuspended in Krebs-Henseleit buffer pH 7.4 (1.17 mM MgS04 anhydrous, 4.69 mM KCl, 0.7 mM K2HPO4 anhydrous, 0.11 M NaCl, 11 mM D-glucose and 25 mM NaHCO3) containing 20 mM Tris, and kept for 2 days at −20° C. The membranes are then thawed at 20-23° C., washed three times with Krebs-Henseleit buffer by centrifugation at 18,000×g for 15 minutes, left overnight at 4° C. and washed again three times. […]
The resulting membranes are subjected to a radioligand binding assay. […] Following drying of the plates for 3 h. at 50° C., 40 μl of Microscint 20 is added to each well, the plates incubated at room temperature for a further 20 minutes and the retained radioactivity quantified in a Packard TopCount NXT™ scintillation counter. […]

From US20070043013A1, “1,3 Disubstituted azetidine derivatives for use as ccr-3 receptor antagonists in the treatment of inflammatory and allergic diseases” (priority 2003, published 2007) come the findings set out here.

Chain of histamine H1 (P35367 whole entry): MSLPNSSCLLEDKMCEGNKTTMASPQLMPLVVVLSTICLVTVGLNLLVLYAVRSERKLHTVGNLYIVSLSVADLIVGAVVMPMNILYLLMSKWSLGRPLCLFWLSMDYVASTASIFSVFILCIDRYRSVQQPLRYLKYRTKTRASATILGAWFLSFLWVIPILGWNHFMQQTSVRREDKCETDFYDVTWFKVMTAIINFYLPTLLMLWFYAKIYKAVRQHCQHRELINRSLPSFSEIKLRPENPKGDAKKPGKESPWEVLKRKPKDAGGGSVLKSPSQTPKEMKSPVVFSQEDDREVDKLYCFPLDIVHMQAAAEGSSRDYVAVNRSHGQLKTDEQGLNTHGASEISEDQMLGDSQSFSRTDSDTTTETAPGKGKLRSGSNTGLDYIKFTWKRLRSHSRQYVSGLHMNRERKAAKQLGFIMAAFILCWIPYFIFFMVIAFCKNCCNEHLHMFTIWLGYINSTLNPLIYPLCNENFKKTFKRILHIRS

Turning to `CCc1nnc(NC(=O)N[C@@H]2CCCC[C@@H]2CN2CC(Oc3ccc(Cl)cc3)C2)s1` (racemic) [Example 31, (+/−)1-{(1R,2R)-2-[3-(4-Chloro-phenoxy)-azetidin-1-yl-methyl]-cyclohexyl}-3-(5-ethyl-[1,3,4]thiadiazol-2-yl)-urea], the “histamine H1 antagonist activity” value on histamine H1 was “histamine H1 antagonists”.
`CCc1nnc(NC(=O)N[C@H](CO)CCN2CC(Sc3ccc(Cl)cc3)C2)s1` [Example 19, 1-{(S)-3-[3-(4-Chloro-phenylsulfanyl)-azetidin-1-yl]-1-hydroxymethyl-propyl}-3-(5-ethyl-[1,3,4]thiadiazol-2-yl)-urea]: on histamine H1, the “histamine H1 antagonist activity” value is listed as “histamine H1 antagonists”.
The Kd is the free concentration of one partner at which half of the binding sites on the other are occupied at equilibrium, for simple one-to-one binding. Low values mean higher affinity, high ones lower affinity. The compound `O=C1c2ccccc2CCC1CNCCc1ccc(O)c(I)c1` (stereo not drawn) [[^125I]-HEAT] gave a Kd in assay [1] of 0.0589 ± 0.0187 nM.
